The target of the assay is T1, hNR2B (Homo sapiens, UniProt Q05586+Q13224).
T1 construct: expressed in transfected cells; host or cells: Xenopus laevis oocytes, cRNA-injected
As to the kind of experiment: Electrophysiology NMDA receptor experiments: two electrode voltage-clamp in Xenopus laevis oocytes, hNR2B IC50. Type of assay: cell-based. To be noted: 50 μM glutamate, 30 μM glycine.

[1] abbreviates: hNR2B activity class, read-out: Activity.
Setting [2] is: voltage clamp -40 mV, read-out: hNR2B IC50.

The IC50 is the concentration at which inhibition is half-maximal. Lower therefore signals greater potency.

pIC50: −log10 of the molar value. Where two headings read alike, the source gives them in different places. Bounds are passed on as bounds.

T1 sequence (Q13224 27-1484, other chains not shown): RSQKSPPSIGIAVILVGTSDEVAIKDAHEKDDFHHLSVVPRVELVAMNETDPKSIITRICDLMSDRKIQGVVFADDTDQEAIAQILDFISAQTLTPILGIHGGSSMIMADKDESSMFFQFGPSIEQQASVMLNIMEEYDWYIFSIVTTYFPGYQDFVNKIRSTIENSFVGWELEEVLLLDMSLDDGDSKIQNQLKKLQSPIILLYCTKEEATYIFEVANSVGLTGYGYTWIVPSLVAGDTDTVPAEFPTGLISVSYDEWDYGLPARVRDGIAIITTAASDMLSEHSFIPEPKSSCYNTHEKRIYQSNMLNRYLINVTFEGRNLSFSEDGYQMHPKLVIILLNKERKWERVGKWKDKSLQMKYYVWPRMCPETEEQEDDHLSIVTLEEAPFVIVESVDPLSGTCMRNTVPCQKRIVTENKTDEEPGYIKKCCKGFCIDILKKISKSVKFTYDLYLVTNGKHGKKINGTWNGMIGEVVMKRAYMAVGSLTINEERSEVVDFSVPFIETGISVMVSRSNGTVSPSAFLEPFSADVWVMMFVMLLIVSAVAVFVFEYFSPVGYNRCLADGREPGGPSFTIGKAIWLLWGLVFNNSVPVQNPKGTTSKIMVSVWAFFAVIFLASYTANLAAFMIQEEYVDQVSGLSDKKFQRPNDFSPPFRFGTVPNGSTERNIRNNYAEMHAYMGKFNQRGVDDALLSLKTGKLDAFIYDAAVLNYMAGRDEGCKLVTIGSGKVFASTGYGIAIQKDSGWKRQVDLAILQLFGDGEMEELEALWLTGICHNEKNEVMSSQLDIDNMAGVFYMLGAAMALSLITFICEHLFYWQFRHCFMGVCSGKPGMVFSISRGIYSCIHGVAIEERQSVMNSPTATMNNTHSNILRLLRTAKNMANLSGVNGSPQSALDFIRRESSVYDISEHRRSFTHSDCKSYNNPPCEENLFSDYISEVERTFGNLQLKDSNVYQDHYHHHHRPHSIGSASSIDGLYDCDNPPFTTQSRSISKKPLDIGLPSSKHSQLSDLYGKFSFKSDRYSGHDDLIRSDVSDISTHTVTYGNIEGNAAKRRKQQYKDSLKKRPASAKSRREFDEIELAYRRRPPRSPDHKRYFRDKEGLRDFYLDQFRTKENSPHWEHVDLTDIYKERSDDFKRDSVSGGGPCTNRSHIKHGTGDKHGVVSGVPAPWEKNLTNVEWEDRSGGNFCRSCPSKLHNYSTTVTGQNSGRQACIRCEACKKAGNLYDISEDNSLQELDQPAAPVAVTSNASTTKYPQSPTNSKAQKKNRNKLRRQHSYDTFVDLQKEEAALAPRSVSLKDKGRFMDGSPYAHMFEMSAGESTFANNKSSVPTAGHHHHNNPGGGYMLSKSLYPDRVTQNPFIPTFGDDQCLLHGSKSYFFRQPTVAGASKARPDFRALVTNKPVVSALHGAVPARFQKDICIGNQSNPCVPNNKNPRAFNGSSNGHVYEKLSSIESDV
Procedure: Stage V and VI oocytes were surgically removed from the ovaries of large, well-fed and healthy Xenopus laevis anesthetized with 3-amino-benzoic acid ethyl ester (3 gm/l). […] Oocytes were then washed in the same solution supplemented with 1.8 mM CaCl2 and maintained in Barth's solution comprised of (in mM): 88 NaCl, 1 KCl, 2.4 NaHCO3, 10 HEPES, 0.82 MgSO4, 0.33 Ca(NO3)2, and 0.91 CaCl2 and supplemented with 100 μg/ml gentamycin, 10 μg/ml streptomycin, and 10 μg/ml penicillin.
Two electrode voltage-clamp recordings were made 2-7 days post-injection. Oocytes were placed in a dual-track plexiglass recording chamber with a single perfusion line that splits in a Y-configuration to perfuse two oocytes. Dual recordings were made at room temperature (23° C.) using two Warner OC725B two-electrode voltage clamp amplifiers, arranged as recommended by the manufacturer. Glass microelectrodes (1-10 Megaohms) were filled with 300 mM KCl (voltage electrode) or 3 M KCl (current electrode). The bath clamps communicated across silver chloride wires placed into each side of the recording chamber, both of which were assumed to be at a reference potential of 0 mV. Oocytes were perfused with a solution comprised of (in mM) 90 NaCl, 1 KCl, 10 HEPES, 10 EDTA and 0.5 BaCl2; pH 7.4, adjusted by addition of NaOH. Oocytes were recorded under voltage clamp at −40 mV. Final concentrations for glutamate and glycine were 50 μM and 30 μM, respectively. […] Dose response curves consisting of four to eight concentrations were obtained in this manner. The baseline leak current at −40 mV was measured before and after recording, and the full recording linearly corrected for any change in leak current. The level of inhibition by applied experimental compounds was expressed as a percent of the initial glutamate response, and averaged together across oocytes from multiple experiments.
For NMDA receptor subtype selectivity experiments human GluN1/GluN2A, GluN1/GluN2C, and GluN1/GluN2D cRNAs were expressed in Xenopus laevis as described above. Here, 10 μM concentrations of the antagonist was perfused with 50 μM glutamate and 30 μM glycine onto the oocyte for two min and the remaining current in the presence of the antagonist was compared to the maximal current obtained with 50 μM glutamate and 30 μM glycine alone (defined as 100%). When IC50 determinations were made against other NMDA receptor subtypes the protocol as described above was followed.

As to `CC(Oc1ccc2[nH]c(=O)ccc2c1)c1nnc(Nc2ccc(Cl)c(Cl)c2)o1` (single isomer, unassigned) [Example 109], the pIC50 under setting [1] is over 6.70. Turning to `O=C1CCc2cc(OCc3nnc(Nc4ccc(Cl)cc4)o3)ccc2N1` [Example 1, 6-((5-(4-chlorophenylamino)-1,3,4-oxadiazol-2-yl)methoxy)-3,4-dihydroquinolin-2(1H)-one], the pIC50 under setting [2] was 6.15. The same measure, in the same setting: for `O=c1ccc2cc(OCc3nnc(-c4ccc(Cl)c(Cl)c4)o3)ccc2[nH]1` [Example 2, 6-((5-(3,4-dichlorophenyl)-1,3,4-oxadiazol-2-yl)methoxy)quinolin-2(1H)-one] the value was under 5.00. `CC(C)OC(=O)Nc1ccc(OCc2nnc(Nc3ccc(Cl)c(Cl)c3)o2)cc1` [Example 3, Isopropyl 4-((5-(3,4-dichlorophenylamino)-1,3,4-oxadiazol-2-yl)methoxy)phenyl carbamate]: the pIC50 under setting [2] is 5.14.

As for `O=C1CCc2cc(OCc3nnc(Nc4ccc(Br)cc4)o3)ccc2N1` [Example 4], the pIC50 under setting [2] is 6.58. Still for that read-out and setting: for `O=C1CCc2cc(OCc3nnc(Nc4ccc(Cl)c(Cl)c4)o3)ccc2N1` [Example 5] the value was 7.24. Regarding `O=C1Cc2cc(OCc3nnc(Nc4ccc(Cl)c(Cl)c4)o3)ccc2N1` [Example 8], the pIC50 under setting [1] was over 6.70. The same measure, in the same setting: for `O=C1Cc2cc(OCc3nnc(NCc4ccc(Cl)c(Cl)c4)o3)ccc2N1` [Example 9] the value was over 6.70; for `O=c1ccc2cc(OCc3nnc(Nc4ccc(Cl)c(Cl)c4)o3)ccc2[nH]1` [Example 10], over 6.70.

Take `O=c1ccc2cc(OCc3nnc(Nc4ccc(C(F)(F)F)cc4)o3)ccc2[nH]1` [Example 11]: the pIC50 under setting [2] is 7.26. As for `O=c1ccc2cc(OCc3nnc(Nc4ccc(Cl)cc4)o3)ccc2[nH]1` [Example 12], the pIC50 under setting [1] was over 6.70. Turning to `O=c1ccc2cc(OCc3nnc(Nc4ccc(OC(F)(F)F)cc4)o3)ccc2[nH]1` [Example 13], under setting [1], the pIC50 was over 6.70. Still for that read-out and setting: the same measure for `O=C1CCc2cc(OCc3nnc(Nc4ccc(OC(F)(F)F)cc4)o3)ccc2N1` [Example 14]: 6.00 to 6.70; for `O=C1CCc2cc(OCc3nnc(Nc4ccc(Cl)cn4)o3)ccc2N1` [Example 15]: under 5.00; for `O=C1CCc2cc(OCc3nnc(Nc4ccc(OC(F)F)cc4)o3)ccc2N1` [Example 16]: 6.00 to 6.70.

For the compound `O=c1ccc2cc(OCc3nnc(Nc4ccc(OC(F)F)cc4)o3)ccc2[nH]1` [Example 17], under setting [2], the pIC50 is 7.10. Take `CCOC(=O)Cc1ccc(Nc2nnc(COc3ccc4c(c3)CCC(=O)N4)o2)cc1` [Example 18]: the pIC50 under setting [1] is under 5.00. `O=C1CCc2cc(OCc3nnc(NCc4ccc(Cl)cc4)o3)ccc2N1` [Example 20]: the pIC50 under setting [2] is 6.32. In the case of `O=C1CCc2cc(OCc3nnc(NCc4ccc(Cl)c(Cl)c4)o3)ccc2N1` [Example 21], the pIC50 under setting [1] is over 6.70. As for `O=c1ccc2cc(OCc3nnc(NCc4ccc(Cl)c(Cl)c4)o3)ccc2[nH]1` [Example 22], the pIC50 under setting [1] was over 6.70.

Turning to `O=C1CCc2cc(OCc3nnc(NCc4ccc(OC(F)(F)F)cc4)o3)ccc2N1` [Example 23], the pIC50 under setting [1] is over 6.70. Compound `O=c1ccc2cc(OCc3nnc(NCc4ccc(Cl)nc4)o3)ccc2[nH]1` [Example 24] showed a pIC50 (Activity, hNR2B activity class) of 5.00 to 6.00. In addition, the half-inhibitory concentration (IC50) (hNR2B IC50 (nM), voltage clamp -40 mV) was found to be 7240 nM.

Turning to `O=C1CCc2cc(OCc3nnc(NCc4ccc(Cl)nc4)o3)ccc2N1` [Example 25], the pIC50 under setting [1] is under 5.00. Take `O=c1ccc2cc(OCc3nnc(NCc4ccc(OC(F)(F)F)cc4)o3)ccc2[nH]1` [Example 26]: the pIC50 under setting [1] was over 6.70.

Regarding `O=c1ccc2cc(OCc3nnc(NCc4ccc(OC(F)F)cc4)o3)ccc2[nH]1` [Example 27], the pIC50 under setting [1] is over 6.70. For the compound `O=C1CCc2cc(OCc3nnc(NCc4ccc(OC(F)F)cc4)o3)ccc2N1` [Example 28], the pIC50 under setting [1] is over 6.70.

Regarding `CS(=O)(=O)Nc1ccc(OCc2nnc(Nc3ccc(Cl)c(Cl)c3)o2)cc1` [Example 29], the pIC50 under setting [1] is over 6.70. On to `CS(=O)(=O)Nc1ccc(OCc2nnc(NCc3ccc(Cl)c(Cl)c3)o2)cc1` [Example 30], for which the pIC50 under setting [2] was 7.72. For `CCOC(=O)Nc1ccc(OCc2nnc(Nc3ccc(Cl)c(Cl)c3)o2)cc1` [Example 31], under setting [1], the pIC50 is under 5.00. `CCOC(=O)Nc1ccc(OCc2nnc(NCc3ccc(Cl)c(Cl)c3)o2)cc1` [Example 32]: the pIC50 under setting [2] was 5.67. In the case of `O=c1ccc2cc(OCc3nnc(Nc4ccccc4F)o3)ccc2[nH]1` [Example 33], the pIC50 under setting [1] is under 5.00. Consider `O=c1ccc2cc(OCc3nnc(Nc4ccccc4)o3)ccc2[nH]1` [Example 34], for which, under setting [1], the pIC50 was 5.00 to 6.00. For `O=c1ccc2cc(OCc3nnc(Nc4ccc(Cl)cc4F)o3)ccc2[nH]1` [Example 35], the pIC50 under setting [2] was 6.05. Regarding `O=c1ccc2cc(OCc3nnc(Nc4cccc(F)c4)o3)ccc2[nH]1` [Example 39], under setting [1], the pIC50 is 5.00 to 6.00. Still for that read-out and setting: the same measure for `O=c1ccc2cc(OCc3nnc(Nc4ccc(F)cc4)o3)ccc2[nH]1` [Example 40]: 5.00 to 6.00; for `O=c1ccc2cc(OCc3nnc(Nc4ccccc4Cl)o3)ccc2[nH]1` [Example 41]: under 5.00; for `O=c1ccc2cc(OCc3nnc(Nc4cccc(C(F)(F)F)c4)o3)ccc2[nH]1` [Example 42]: 6.00 to 6.70. In the case of `Cc1ccc(Nc2nnc(COc3ccc4[nH]c(=O)ccc4c3)o2)cc1` [Example 45], the pIC50 under setting [1] was 6.00 to 6.70. For the compound `Cc1cccc(Nc2nnc(COc3ccc4[nH]c(=O)ccc4c3)o2)c1` [Example 46], the pIC50 under setting [1] is 5.00 to 6.00. For `O=c1ccc2cc(OCc3nnc(Nc4ccc(Cl)c(F)c4)o3)ccc2[nH]1` [Example 49], under setting [2], the pIC50 is 7.74. On to `Clc1ccc(Nc2nnc(COc3ccc4[nH]ncc4c3)o2)cc1Cl` [Example 50], for which the pIC50 under setting [1] is over 6.70. The same measure, in the same setting: for `O=c1ccc2cc(OCc3nnc(Nc4ccc(Cl)c(C(F)(F)F)c4)o3)ccc2[nH]1` [Example 51] the value was over 6.70. Consider `CC(C)c1ccc(Nc2nnc(COc3ccc4[nH]c(=O)ccc4c3)o2)cc1` [Example 52], for which the pIC50 under setting [1] is over 6.70. With `O=c1ccc2cc(OCc3nnc(Nc4cc(Cl)cc(Cl)c4)o3)ccc2[nH]1` [Example 53], the pIC50 under setting [2] is 5.39. Regarding `O=c1ccc2cc(OCc3nnc(Nc4ccccc4C(F)(F)F)o3)ccc2[nH]1` [Example 54], the pIC50 under setting [1] is under 5.00. Consider `O=c1ccc2cc(OCc3nnc(Nc4ccc(Cl)c(OC(F)(F)F)c4)o3)ccc2[nH]1` [Example 55], for which, under setting [2], the pIC50 was 6.27. On to `O=c1ccc2cc(OCc3nnc(Nc4ccc(Cl)cc4Cl)o3)ccc2[nH]1` [Example 56], for which the pIC50 under setting [1] is under 5.00. The same measure, in the same setting: for `O=c1ccc2cc(OCc3nnc(Nc4cc(Cl)ccc4Cl)o3)ccc2[nH]1` [Example 57] the value was under 5.00.

With `O=c1ccc2cc(OCc3nnc(Nc4cccc(Cl)c4)o3)ccc2[nH]1` [Example 58], the pIC50 under setting [2] was 6.08. Regarding `O=c1ccc2cc(OCc3nnc(Nc4cccc(Cl)c4Cl)o3)ccc2[nH]1` [Example 59], under setting [1], the pIC50 is over 6.70. Take `O=c1ccc2cc(OCc3nnc(NCc4ccccc4Cl)o3)ccc2[nH]1` [Example 63]: the pIC50 under setting [1] was 5.00 to 6.00. The same measure, in the same setting: the same measure for `O=c1ccc2cc(OCc3nnc(Nc4c(Cl)cccc4Cl)o3)ccc2[nH]1` [Example 66]: under 5.00; for `O=c1ccc2cc(OCc3nnc(NCc4ccc(Cl)cc4F)o3)ccc2[nH]1` [Example 67]: 6.00 to 6.70; for `O=c1ccc2cc(OCc3nnc(NCc4cccc(F)c4)o3)ccc2[nH]1` [Example 68]: 6.00 to 6.70.

Source of the values: patent publication US8722670B2, “Selective NR2B antagonists” (Bristol-Myers Squibb Company, priority 2011, dated 2014).
